The values that follow are results of earlier work, collected in patent US7339052B2, “Phosphoramidite activator for oligonucleotide synthesis” (Honeywell International Inc., priority 2005, dated 2008).

As to `c1ccc(CSc2nnn[nH]2)cc1` [BMT, 5-benzylmercaptotetrazole], the “maximum solubility in acetonitrile” value is listed as “about 0.33 M”.
